According to publication PMC3264873 (Pharmaceutical Research, 2011):
Values joined by “and” are separate entries in the source; they are usually repeats but may differ in a detail not shown here. Equal values may be shown once. Read-outs that look alike come from different tables or passages of the source. Starred links: 1 amine or outer side, 2 acyl side, 3 side chain; linkers in the order of their positions; H or OH if unused. Positions of bridges follow the written chain, without caps; N, C: chain ends. Non-standard residues stand in square brackets, D forms with d. Residues, ends and D or L forms follow the SMILES beside them. Trp(2-yl) = O=C([C@H](Cc1c([*:3])[nH]c2ccccc12)N[*:1])[*:2]; Leu(4R-OH,5-OH) = C[C@](O)(CO)C[C@H](N)C(=O)O; cisHyp = O=C(O)[C@@H]1C[C@H](O)CN1

Tests used:
[1] = target: T1, OATP1B1 (Homo sapiens, UniProt Q9Y6L6); assay: Calculation of R-values; conditions: for R-value E: ka = 0.03, Fa published value (lopinavir Fa = 1); for Range of the eight R-values A–H: all eight calculation variants; for Average (mean) R-value: mean of the eight R-values A–H
T1 sequence (Q9Y6L6 1-691): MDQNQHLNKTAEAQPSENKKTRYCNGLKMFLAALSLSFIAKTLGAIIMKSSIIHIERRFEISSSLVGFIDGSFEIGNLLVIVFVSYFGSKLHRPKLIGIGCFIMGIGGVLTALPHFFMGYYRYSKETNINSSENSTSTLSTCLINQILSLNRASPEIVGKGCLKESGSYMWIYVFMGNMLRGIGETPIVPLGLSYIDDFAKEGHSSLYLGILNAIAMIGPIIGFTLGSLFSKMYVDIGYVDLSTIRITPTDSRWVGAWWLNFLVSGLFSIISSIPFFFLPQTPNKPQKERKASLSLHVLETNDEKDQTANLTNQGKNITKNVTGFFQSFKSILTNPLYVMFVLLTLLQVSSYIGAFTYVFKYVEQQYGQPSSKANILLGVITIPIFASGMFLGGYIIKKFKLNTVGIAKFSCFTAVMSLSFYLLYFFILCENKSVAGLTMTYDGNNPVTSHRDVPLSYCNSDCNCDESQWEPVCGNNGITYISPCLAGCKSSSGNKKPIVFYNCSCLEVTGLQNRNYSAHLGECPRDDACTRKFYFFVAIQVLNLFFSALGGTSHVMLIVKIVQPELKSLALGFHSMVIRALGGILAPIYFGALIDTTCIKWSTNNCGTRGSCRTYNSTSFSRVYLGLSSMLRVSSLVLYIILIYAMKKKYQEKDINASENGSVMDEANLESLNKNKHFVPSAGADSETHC

[2] = target: T1, OATP1B1; conditions: IC50 from another study and cell system; ref [3]; cited from earlier work
[3] = target: T1, OATP1B1; assay: Concentration-dependent inhibition of OATP1B1-mediated atorvastatin uptake; assay type: cell-based
[4] = target: T1, OATP1B1; assay: Screening for inhibition of OATP1B1-mediated estradiol-17β-glucuronide uptake; conditions: for Classification as OATP1B1 inhibitor (more than 50% inhibition of E17βG uptake): 20 μM test compound
[5] = clinical co-administration with the inhibitor; ref [37],[27],[43],[51],[46]; cited from earlier work
[6] = ref [3],[23],[24]; cited from earlier work
[7] = cited from earlier work; for Imax, maximum systemic plasma concentration of the inhibitor: amprenavir recalculated from fosamprenavir data, ref [23]–[28]; for Fa, fraction of the inhibitor dose absorbed (maximum oral bioavailability): ref [23]–[25]
[8] = target: T1, OATP1B1; assay: Michaelis-Menten uptake kinetics in HEK293 cells stably expressing OATP1B1; assay type: cell-based
[9] = human, pH 7.4, Inhibition of E17βG uptake, 100 μM test compound (data not shown)
[10] = Eq. 2 (IC50), ka = 0.03, Fa = 1, International Transporter Consortium method
[11] = Eq. 2 (IC50), ka = 0.1, Fa published value (lopinavir Fa = 1)
[12] = Eq. 3 (Ki), ka = 0.1, Fa = 1, Hirano et al. method
[13] = Eq. 3 (Ki), ka = 0.1, Fa published value (lopinavir Fa = 1)

Cc1cccc(C)c1OCC(=O)N[C@@H](Cc1ccccc1)[C@@H](O)C[C@H](Cc1ccccc1)NC(=O)[C@H](C(C)C)N1CCCNC1=O [Lopinavir]
R-value B [1]: 1.76 | R-value C [1]: 2.56 | R-value D [1]: 2.56 | R-value F [1]: 2.74 | R-value G [1]: 4.58 | R-value H [1]: 4.58 | R-value E ([1]; Eq. 3 (Ki)): 2.74 | Range of the eight R-values A–H [1]: 1.76–4.58 | Average (mean) R-value [1]: 2.91 | R-value B calculated in the literature [2]: 9.2 | IC50 [3]: 740 nM | Ki [3]: 0.32 µM

CC1(C)S[C@@H]2[C@H](NC(=O)Cc3ccccc3)C(=O)N2[C@H]1C(=O)O [Penicillin G]
inhibition at 5 min, 100 µM [4, 9]: 32%

CC[C@]1(O)C[C@@H]2CN(CCc3c([nH]c4ccccc34)[C@@](C(=O)OC)(c3cc4c(cc3OC)N(C)[C@H]3[C@@](O)(C(=O)OC)[C@H](OC(C)=O)[C@]5(CC)C=CCN6CC[C@]43[C@@H]65)C2)C1 [Vinblastine]
Classification as OATP1B1 inhibitor (more than 50% inhibition of E17βG uptake) [4]: inhibitors

CCOc1cc(CC(=O)N[C@@H](CC(C)C)c2ccccc2N2CCCCC2)ccc1C(=O)O [Repaglinide]
Classification as OATP1B1 inhibitor (more than 50% inhibition of E17βG uptake) [4]: classified as OATP1B1 inhibitors

C[C@@H]1[C@H](O)[C@@H](C)/C=C/C=C/CC/C=C/C=C/C=C/C=C/C(O[C@H]2O[C@H](C)[C@@H](O)[C@H](N)[C@@H]2O)CC2O[C@](O)(CC(O)C(O)CCC(O)CC(O)CC(O)CC(=O)O[C@H]1C)CC(O)C2C(=O)O (stereo partly drawn) [Nystatin]
Classification as OATP1B1 inhibitor (more than 50% inhibition of E17βG uptake) [4]: inhibitors

C[C@H](CCC(=O)NCCS(=O)(=O)O)[C@H]1CC[C@H]2[C@@H]3[C@H](O)C[C@@H]4C[C@H](O)CC[C@]4(C)[C@H]3CC[C@]12C [Taurochenodeoxycholate]
Classification as OATP1B1 inhibitor (more than 50% inhibition of E17βG uptake) [4]: inhibitors

C[C@H](CCC(=O)NCC(=O)O)[C@H]1CC[C@H]2[C@@H]3[C@H](O)C[C@@H]4C[C@H](O)CC[C@]4(C)[C@H]3CC[C@]12C [Glycochenodeoxycholate]
Classification as OATP1B1 inhibitor (more than 50% inhibition of E17βG uptake) [4]: inhibitors

CCOc1nc2cccc(C(=O)O)c2n1Cc1ccc(-c2ccccc2-c2nnn[nH]2)cc1 [Candesartan]
Classification as OATP1B1 inhibitor (more than 50% inhibition of E17βG uptake) [4]: inhibitors

CNC(=O)c1cccnc1 [N-methylnicotinamide]
Classification as OATP1B1 inhibitor (more than 50% inhibition of E17βG uptake) [4]: inhibitors

CC(=O)S[C@@H]1CC2=CC(=O)CC[C@]2(C)[C@H]2CC[C@@]3(C)[C@@H](CC[C@@]34CCC(=O)O4)[C@H]12 [Spironolactone]
Classification as OATP1B1 inhibitor (more than 50% inhibition of E17βG uptake) [4]: inhibitors

Cc1ccc(C)c(OCCCC(C)(C)C(=O)O)c1 [Gemfibrozil]
Fold AUC change Atorvastatin [5]: 1.2 fold | R-value B [1, 10]: 1.05 | R-value D ([1]; Eq. 2 (IC50), ka = 0.1, Fa = 1): 1.08 | R-value C [1, 11]: 1.08 | R-value F ([1]; Eq. 3 (Ki), ka = 0.03, Fa = 1): 1.11 | R-value E ([1]; Eq. 3 (Ki)): 1.11 | R-value H [1, 12]: 1.19 | R-value G [1, 13]: 1.19 | Range of the eight R-values A–H [1]: 1.05–1.19 | Average (mean) R-value [1]: 1.11 | IC50 [3]: 156000 nM | Ki [3]: 68.1 µM | Fu, fraction of the inhibitor that is unbound [6]: 0.05 | Imax, maximum systemic plasma concentration of the inhibitor [7]: 99.9 µM | Fa, fraction of the inhibitor dose absorbed (maximum oral bioavailability) [7]: 0.98

COC(=O)C1=C(C)NC(C)=C(C(=O)OCCN(C)Cc2ccccc2)C1c1cccc([N+](=O)[O-])c1 (stereo not drawn) [Nicardipine]
Classification as OATP1B1 inhibitor (more than 50% inhibition of E17βG uptake) [4]: inhibitors

CC(C)OC(=O)C(C)(C)Oc1ccc(C(=O)c2ccc(Cl)cc2)cc1 [Fenofibrate]
Inhibition of atorvastatin uptake (in words) ([3]; investigated concentration interval 0.1–100 μM, 1 μM atorvastatin): did not inhibit atorvastatin uptake | Fa, fraction of the inhibitor dose absorbed (maximum oral bioavailability) [7]: 0.81

C[C@H](CCC(=O)NCC(=O)O)[C@H]1CC[C@H]2[C@@H]3CC[C@@H]4C[C@H](O)CC[C@]4(C)[C@H]3C[C@H](O)[C@]12C [Glycodeoxycholate]
Classification as OATP1B1 inhibitor (more than 50% inhibition of E17βG uptake) [4]: inhibitors

COc1ccc2c(c1)c(CC(=O)O)c(C)n2C(=O)c1ccc(Cl)cc1 [Indomethacin]
Classification as OATP1B1 inhibitor (more than 50% inhibition of E17βG uptake) [4]: inhibitors

N[C@@H](Cc1cc(I)c(Oc2cc(I)c(O)c(I)c2)c(I)c1)C(=O)O [Levothyroxin]
Classification as OATP1B1 inhibitor (more than 50% inhibition of E17βG uptake) [4]: not identified as inhibitors | inhibition at 5 min, 75 µM ([4]; human, pH 7.4, Inhibition of E17βG uptake, 75 μM test compound (data not shown)): > 50% | inhibition at 5 min, 100 µM [4, 9]: > 50%

CC/C(=C(/CC)c1ccc(O)cc1)c1ccc(O)cc1 [Diethylstilbestrol]
Classification as OATP1B1 inhibitor (more than 50% inhibition of E17βG uptake) [4]: inhibitors

Nc1ncnc2c1ncn2CCOCP(=O)(O)O [Adefovir]
Classification as OATP1B1 inhibitor (more than 50% inhibition of E17βG uptake) [4]: inhibitors

CN(CCOc1ccc(CC2SC(=O)NC2=O)cc1)c1ccccn1 (stereo not drawn) [Rosiglitazone]
Classification as OATP1B1 inhibitor (more than 50% inhibition of E17βG uptake) [4]: classified as OATP1B1 inhibitors

CC(=O)Oc1ccc2c(c1)Oc1cc(OC(C)=O)ccc1C21OC(=O)c2cc(C(=O)O)ccc21 [5-CFDA]
Classification as OATP1B1 inhibitor (more than 50% inhibition of E17βG uptake) [4]: inhibitors

CC(C)CN(C[C@@H](O)[C@H](Cc1ccccc1)NC(=O)O[C@H]1CCOC1)S(=O)(=O)c1ccc(N)cc1 [Amprenavir]
R-value B [1, 10]: 1.21 | R-value D ([1]; Eq. 2 (IC50), ka = 0.1, Fa = 1): 1.54 | R-value C [1, 11]: 1.49 | R-value F ([1]; Eq. 3 (Ki), ka = 0.03, Fa = 1): 1.37 | R-value E ([1]; Eq. 3 (Ki)): 1.34 | R-value H [1, 12]: 1.95 | R-value G [1, 13]: 1.87 | Range of the eight R-values A–H [1]: 1.19–1.95 and < 2 | Average (mean) R-value [1]: 1.49 | Ki [3]: 9.52 µM | Imax, maximum systemic plasma concentration of the inhibitor [7]: 11.2 µM | Fa, fraction of the inhibitor dose absorbed (maximum oral bioavailability) [7]: 0.9

O=C(O)c1cc(/N=N/c2ccc(S(=O)(=O)Nc3ccccn3)cc2)ccc1O [Sulfasalazine]
Classification as OATP1B1 inhibitor (more than 50% inhibition of E17βG uptake) [4]: inhibitors

Ivermectin
Classification as OATP1B1 inhibitor (more than 50% inhibition of E17βG uptake) [4]: inhibitors

COC(=O)[C@H]1[C@H]2C[C@@H]3c4[nH]c5cc(OC)ccc5c4CCN3C[C@H]2C[C@@H](OC(=O)c2cc(OC)c(OC)c(OC)c2)[C@@H]1OC [Reserpine]
Classification as OATP1B1 inhibitor (more than 50% inhibition of E17βG uptake) [4]: inhibitors

C[C@]12CC[C@@H]3c4ccc(O)cc4CC[C@H]3[C@@H]1CC[C@@H]2O[C@@H]1O[C@H](C(=O)O)[C@@H](O)[C@H](O)[C@H]1O [Estradiol-17-β-glucuronide]
Vmax of OATP1B1-mediated uptake ([8]; E17βG 1–200 μM, 96-well plates, HEK293-OATP1B1): 1.37 (± 0.12) pmol/min/mg protein | Uptake in OATP1B1 cells relative to mock-transfected cells ([8]; at 5 min (E17βG) and 2 min (atorvastatin)): at least 8 times

C[C@@H]1NC(=O)[C@H](C[C@@](C)(O)CO)NC(=O)[C@@H]2Cc3c([nH]c4ccccc34)SC[C@H](NC(=O)[C@@H]([C@H](C)O)NC1=O)C(=O)N1C[C@@H](O)C[C@H]1C(=O)N[C@@H](C)C(=O)N2 [Phalloidin] (cyclo(A[dT]C[cisHyp]A[Trp(2-yl)][Leu(4R-OH,5-OH)]); thioether 3-6)
Classification as OATP1B1 inhibitor (more than 50% inhibition of E17βG uptake) [4]: not identified as inhibitors | inhibition at 5 min, 100 µM ([4]; human, pH 7.4): 49%

CCC[C@@]1(CCc2ccccc2)CC(O)=C([C@H](CC)c2cccc(NS(=O)(=O)c3ccc(C(F)(F)F)cn3)c2)C(=O)O1 [Tipranavir]
Classification as OATP1B1 inhibitor (more than 50% inhibition of E17βG uptake) [4]: inhibitors

C[C@H](CCC(=O)NCCS(=O)(=O)O)[C@H]1CC[C@H]2[C@@H]3CC[C@@H]4C[C@H](O)CC[C@]4(C)[C@H]3C[C@H](O)[C@]12C [Taurodeoxycholate]
Classification as OATP1B1 inhibitor (more than 50% inhibition of E17βG uptake) [4]: inhibitors

COC(=O)N[C@H](C(=O)N[C@@H](Cc1ccccc1)[C@@H](O)CN(Cc1ccc(-c2ccccn2)cc1)NC(=O)[C@@H](NC(=O)OC)C(C)(C)C)C(C)(C)C [Atazanavir]
R-value B [1]: 2.38 | R-value C [1]: 3.63 | R-value D [1]: 4.68 | R-value F [1]: 3.43 | R-value G [1]: 5.64 | R-value H [1]: 7.49 | R-value E ([1]; Eq. 3 (Ki)): 2.87 | Average (mean) R-value [1]: 4.02 | IC50 [3]: 1610 nM | Ki [3]: 0.91 µM | Imax, maximum systemic plasma concentration of the inhibitor [7]: 4.47 µM | Fa, fraction of the inhibitor dose absorbed (maximum oral bioavailability) [7]: 0.68
